The values below come from ChEMBL document CHEMBL4402575.

In this experiment the target is Transthyretin (Homo sapiens) (UniProt P02766). As to the kind of experiment: Stabilization of wild type human transthyretin expressed in Escherichia coli BL21(DE3) Star assessed as fibril formation at 50 uM pre-incubated with transthyretin before amyloid beta (1 to 42) addition by ThT fluorescence assay.

Regarding `O=C(O)c1ccc2nc(-c3cc(Cl)cc(Cl)c3)oc2c1`, the Activity stood at 24%.

Turning to `O=C(O)c1cc(-c2ccc(F)cc2F)ccc1O`, the Activity is 26%.
